Data taken from patent publication US8575203B2, “Chemical compounds” (Boehringer Ingelheim International GmbH, priority 2010, dated 2013).

biological target: Recombinant human PDK1 enzyme (aa 52-556) (Homo sapiens (Human), UniProt O15530); test: PDK1 kinase assay; type: biochemical; details: in vitro kinase assay, His6-PDK1 (aa 52-556), PDKtide, P33-ATP
Method in brief: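 Radiometric filter-binding read-out after H3PO4 stop. The reaction ran 90 min at RT, started with a 25 μM ATP/γ-33P-ATP solution, after 30 min RT preincubation of the compound series (10 μM top, 1:5 dilutions) with N-His6 PDK1 aa 52-556 (insect-cell expressed, 3.33 ng/well) and 25 μM final PDKtide.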

Chain of Recombinant human PDK1 enzyme (aa 52-556) (O15530 52-556): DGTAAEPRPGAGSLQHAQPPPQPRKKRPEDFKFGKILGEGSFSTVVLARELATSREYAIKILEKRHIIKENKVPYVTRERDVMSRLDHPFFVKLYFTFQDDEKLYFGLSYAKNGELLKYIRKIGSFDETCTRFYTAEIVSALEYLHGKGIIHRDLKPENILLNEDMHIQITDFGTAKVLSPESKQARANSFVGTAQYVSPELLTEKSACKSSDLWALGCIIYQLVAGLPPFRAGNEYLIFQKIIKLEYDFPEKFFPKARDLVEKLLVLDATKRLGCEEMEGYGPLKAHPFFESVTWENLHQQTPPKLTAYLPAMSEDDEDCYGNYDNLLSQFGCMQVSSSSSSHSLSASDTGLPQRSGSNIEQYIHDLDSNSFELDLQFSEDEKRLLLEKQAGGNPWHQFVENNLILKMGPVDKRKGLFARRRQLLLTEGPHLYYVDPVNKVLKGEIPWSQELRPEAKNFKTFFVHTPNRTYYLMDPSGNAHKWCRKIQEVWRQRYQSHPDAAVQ

Row | IC50 | SMILES
1 | 6 nM | COc1ccc(CN(C)c2ncnc3ccc(C#CCNC(=O)c4cccn(Cc5ccc(F)c(F)c5)c4=O)cc23)cc1 [II-52]
2 | 486 nM | CNc1ncnc2ccc(C#CCNC(=O)c3cncn(Cc4ccccc4F)c3=O)cc12 [II-53]
3 | 8 nM | CCN(CC)c1ncnc2ccc(C#CCNC(=O)c3cccn(C(C)c4ccc(F)c(F)c4)c3=O)cc12 (stereo not drawn) [II-54]
4 | 60 nM | CCN(CC)c1ncnc2ccc(C#CCNC(=O)c3cccn([C@@H](C)c4ccccc4)c3=O)cc12 [II-55]
5 | 6 nM | CCN(CC)c1ncnc2ccc(C#CCNC(=O)c3cccn([C@H](CO)c4ccccc4)c3=O)cc12 [II-56]
6 | 357 nM | CNc1ncnc2ccc(C#CCNC(=O)c3cc(NCCN(C)C)nn(Cc4ccc(F)c(F)c4)c3=O)cc12 [II-57]
7 | 10 nM | CNc1ncnc2ccc(C#CCNC(=O)c3cc(Cl)nn(Cc4ccc(F)c(F)c4)c3=O)cc12 [II-58]
8 | 9 nM | CNc1ncnc2ccc(C#CCNC(=O)c3cc(OC)nn(Cc4ccc(F)c(F)c4)c3=O)cc12 [II-59]
9 | 8 nM | CNc1ncnc2ccc(C#CCNC(=O)c3cccn([C@@H](C)c4ccc(F)c(F)c4)c3=O)cc12 [II-60]
10 | 57 nM | CONc1ncnc2ccc(C#CCNC(=O)c3cncn(Cc4ccc(F)c(F)c4)c3=O)cc12 [II-61]
11 | 16 nM | CON(C)c1ncnc2ccc(C#CCNC(=O)c3cncn(Cc4ccc(F)c(F)c4)c3=O)cc12 [II-62]
12 | 58 nM | O=C(NCC#Cc1ccc2ncnc(-c3ccccc3)c2c1)c1cncn(Cc2ccc(F)c(F)c2)c1=O [II-65]
13 | 98 nM | Cc1ncnc2ccc(C#CCNC(=O)c3cncn(Cc4ccc(F)c(F)c4)c3=O)cc12 [II-66]
14 | 96 nM | O=C(NCC#Cc1ccc2ncnc(C3=CCNCC3)c2c1)c1cncn(Cc2ccc(F)c(F)c2)c1=O [II-67]
15 | 20 nM | CN(C)CCCNC(=O)c1cnc2ccc(C#CCNC(=O)c3cncn(Cc4ccc(F)c(F)c4)c3=O)cc2c1 [II-68]
16 | 21 nM | CNC(=O)c1cnc2ccc(C#CCNC(=O)c3cncn(Cc4ccc(F)c(F)c4)c3=O)c(C)c2c1 [II-69]
17 | 185 nM | Cc1c(C#CCNC(=O)c2cncn(Cc3ccc(F)c(F)c3)c2=O)ccc2ncc(C(=O)N(C)C)cc12 [II-70]
18 | 1000 nM | CCN(CC)C(=O)c1cnc2ccc(C#CCNC(=O)c3cncn(Cc4ccc(F)c(F)c4)c3=O)cc2c1 [II-71]
19 | 45 nM | CNC(=O)c1cnc2ccc(C#CCNC(=O)c3cncn(Cc4ccc(F)c(F)c4)c3=O)cc2c1 [II-72]
20 | 31 nM | O=C(NC1CC1)c1cnc2ccc(C#CCNC(=O)c3cncn(Cc4ccc(F)c(F)c4)c3=O)cc2c1 [II-73]
21 | 12 nM | CN1CCC(NC(=O)c2cnc3ccc(C#CCNC(=O)c4cncn(Cc5ccc(F)c(F)c5)c4=O)cc3c2)CC1 [II-74]
22 | 31 nM | CCNC(=O)c1cnc2ccc(C#CCNC(=O)c3cncn(Cc4ccc(F)c(F)c4)c3=O)cc2c1 [II-76]
23 | 53 nM | CC(C)NC(=O)c1cnc2ccc(C#CCNC(=O)c3cncn(Cc4ccc(F)c(F)c4)c3=O)cc2c1 [II-77]

Row | IC50 | SMILES
24 | 402 nM | CCN1CCN(C(=O)c2cnc3ccc(C#CCNC(=O)c4cncn(Cc5ccc(F)c(F)c5)c4=O)cc3c2)CC1 [II-78]
25 | 201 nM | CN(C)CCCN(C)C(=O)c1cnc2ccc(C#CCNC(=O)c3cncn(Cc4ccc(F)c(F)c4)c3=O)cc2c1 [II-79]
26 | 64 nM | CN1CCCC(NC(=O)c2cnc3ccc(C#CCNC(=O)c4cncn(Cc5ccc(F)c(F)c5)c4=O)cc3c2)C1 (stereo not drawn) [II-80]
27 | 20 nM | CN1CC(NC(=O)c2cnc3ccc(C#CCNC(=O)c4cncn(Cc5ccc(F)c(F)c5)c4=O)cc3c2)C1 [II-81]
28 | 531 nM | O=C(NCC#Cc1ccc2ncc(C(=O)N3CCOCC3)cc2c1)c1cncn(Cc2ccc(F)c(F)c2)c1=O [II-82]
29 | 286 nM | O=C(NCC#Cc1ccc2ncc(C(=O)N3CCNCC3)cc2c1)c1cncn(Cc2ccc(F)c(F)c2)c1=O [II-83]
30 | 405 nM | CN1CCN(C(=O)c2cnc3ccc(C#CCNC(=O)c4cncn(Cc5ccc(F)c(F)c5)c4=O)cc3c2)CC1 [II-84]
31 | 1000 nM | COCCN1CCN(C(=O)c2cnc3ccc(C#CCNC(=O)c4cncn(Cc5ccc(F)c(F)c5)c4=O)cc3c2)CC1 [II-85]
32 | 355 nM | CN(C)C(=O)c1cnc2ccc(C#CCNC(=O)c3cncn(Cc4ccc(F)c(F)c4)c3=O)cc2c1 [II-86]
33 | 24 nM | CN1CCC(NC(=O)c2cnc3ccc(C#CCNC(=O)c4cncn(Cc5ccc(F)c(F)c5)c4=O)cc3c2)C1 (stereo not drawn) [II-87]
34 | 19 nM | O=C(NCC#Cc1ccc2nccc(-c3cc[nH]c3)c2c1)c1cncn(Cc2ccc(F)c(F)c2)c1=O [II-88]
35 | 35 nM | O=C(NCC#Cc1ccc2nccc(-c3cn[nH]c3)c2c1)c1cncn(Cc2ccc(F)c(F)c2)c1=O [II-89]
36 | 86 nM | O=C(NCC#Cc1ccc2nccc(C3=CCNCC3)c2c1)c1cncn(Cc2ccc(F)c(F)c2)c1=O [II-90]
37 | 14 nM | O=C(NCC#Cc1ccc2nccc(C3=CCCNC3)c2c1)c1cncn(Cc2ccc(F)c(F)c2)c1=O [II-91]
38 | 56 nM | Cc1ccnc2ccc(C#CCNC(=O)c3cncn(Cc4ccc(F)c(F)c4)c3=O)cc12 [II-92]
39 | 24 nM | Cc1n[nH]cc1-c1ccnc2ccc(C#CCNC(=O)c3cncn(Cc4ccc(F)c(F)c4)c3=O)cc12 [II-93]
40 | 544 nM | CN(c1c(C#N)cnc2ccc(C#CCNC(=O)c3cccn(Cc4ccc(F)c(F)c4)c3=O)cc12)C1CCCCC1 [II-95]
41 | 607 nM | N#Cc1cnc2ccc(C#CCNC(=O)c3cccn(Cc4ccc(F)c(F)c4)c3=O)cc2c1NCCc1ccccc1 [II-96]
42 | 1060 nM | N#Cc1cnc2ccc(C#CCNC(=O)c3cccn(Cc4ccc(F)c(F)c4)c3=O)cc2c1NCC1CCCCC1 [II-97]
43 | 184 nM | CN(Cc1ccccc1)c1c(C#N)cnc2ccc(C#CCNC(=O)c3cccn(Cc4ccc(F)c(F)c4)c3=O)cc12 [II-98]
44 | 683 nM | CN(CC1CCCCC1)c1c(C#N)cnc2ccc(C#CCNC(=O)c3cccn(Cc4ccc(F)c(F)c4)c3=O)cc12 [II-99]
45 | 871 nM | N#Cc1cnc2ccc(C#CCNC(=O)c3cccn(Cc4ccc(F)c(F)c4)c3=O)cc2c1NCc1ccccc1 [II-102]
46 | 414 nM | CN(CCc1ccccc1)c1c(C#N)cnc2ccc(C#CCNC(=O)c3cccn(Cc4ccc(F)c(F)c4)c3=O)cc12 [II-106]

Row | SMILES | IC50
47 | CN(C)C(=O)CNc1ncnc2ccc(C#CCNC(=O)c3cccn(Cc4ccc(F)c(F)c4)c3=O)cc12 [II-50] | 182 nM
48 | CNc1ncnc2ccc(C#CCNC(=O)c3cccn(Cc4ccoc4)c3=O)cc12 [II-51] | 770 nM
49 | CN(C)c1c(C#N)cnc2ccc(C#CCNC(=O)c3cccn(Cc4ccc(F)c(F)c4)c3=O)cc12 [II-94] | 27 nM
50 | CCN(CC)c1c(C#N)cnc2ccc(C#CCNC(=O)c3cccn(Cc4ccc(F)c(F)c4)c3=O)cc12 [II-100] | 276 nM
51 | CC(C)N(C)c1c(C#N)cnc2ccc(C#CCNC(=O)c3cccn(Cc4ccc(F)c(F)c4)c3=O)cc12 [II-101] | 148 nM
52 | CCN(C)c1c(C#N)cnc2ccc(C#CCNC(=O)c3cccn(Cc4ccc(F)c(F)c4)c3=O)cc12 [II-103] | 77 nM
53 | CC(C)Nc1c(C#N)cnc2ccc(C#CCNC(=O)c3cccn(Cc4ccc(F)c(F)c4)c3=O)cc12 [II-104] | 147 nM
54 | CNc1c(C#N)cnc2ccc(C#CCNC(=O)c3cccn(Cc4ccc(F)c(F)c4)c3=O)cc12 [II-105] | 46 nM
